Experiments:
[1] = system: platelet aggregation caused by U-46619; assay: Test Example 1: Platelet aggregation inhibiting activity (human PRP, U-46619); format: cell-based
Experimental: A blood sample was collected from human fore arm using a syringe containing 3.8% sodium citrate solution (1/10 volume of the blood to be collected) and centrifuged to obtain platelet rich plasma (PRP; 3 ×10^5 platelets/μ1).
(§1) Platelet aggregation was measured using an aggregometer (Hematracer VI, Niko Bioscience Co., Ltd.) by putting 200 µl of the thus prepared PRP and 23.75 µl of physiological saline in a cuvette, setting the cuvette into the aggregometer and incubating the contents at 37° C. for 2 minutes, adding 1.25 μ1 dimethyl sulfoxide (DMSO) solution of each of the N-(3-pyridylalkyl)sulfonamide derivatives obtained in Examples 1, 3, 4, 6 and 8 and incubating for 3 minutes, and then adding U-46619 (Cayman Chemical Co., Inc.) which is a stable PGG2/ H2 derivative having a strong platelet aggregation causing activity.
In this instance, the term "IC50 "as used herein means concentration of the N-(3-pyridylalkyl)sulfonamide derivative of the present invention required to inhibit 50% of the platelet agglutination when platelet aggregation without introducing the inventive derivative was defined as 100%.

thromboxane synthetase = target: T1, thromboxane synthetase (Homo sapiens, UniProt P24557); assay: Test Example 5: Thromboxane synthetase inhibiting activity (human platelet microsomal fraction, RIA); format: biochemical; conditions: PGH2, room temperature, 60 seconds, read-out: Inhibition of thromboxane synthetase IC50
T1 sequence (P24557 1-533): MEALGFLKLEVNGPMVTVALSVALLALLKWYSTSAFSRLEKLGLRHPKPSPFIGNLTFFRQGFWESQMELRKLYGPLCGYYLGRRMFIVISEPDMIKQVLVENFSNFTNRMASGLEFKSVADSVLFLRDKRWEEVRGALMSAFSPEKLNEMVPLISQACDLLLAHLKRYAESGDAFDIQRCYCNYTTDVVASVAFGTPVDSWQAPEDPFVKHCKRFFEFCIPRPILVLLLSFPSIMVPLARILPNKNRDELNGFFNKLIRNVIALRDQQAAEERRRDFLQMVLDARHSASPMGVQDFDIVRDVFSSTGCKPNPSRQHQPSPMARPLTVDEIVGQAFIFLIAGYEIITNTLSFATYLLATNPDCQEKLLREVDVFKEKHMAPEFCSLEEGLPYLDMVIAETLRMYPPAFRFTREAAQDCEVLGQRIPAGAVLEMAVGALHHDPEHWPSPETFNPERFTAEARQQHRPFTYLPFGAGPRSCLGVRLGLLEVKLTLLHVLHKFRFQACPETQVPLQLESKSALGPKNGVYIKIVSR
Experimental: Arachidonic acid (10 nM) was added to 250 μg of microsome of sheep seminal vesicle gland, commercially available from Hilran Biochemical, Co. Ltd., Israel, Lot SM36, which was then reacted at room temperature for 90 seconds to prepare PGH2.
Commercially available human platelet microsomal fraction (200 μg) as a source for thromboxane synthetase was mixed with the PGH2 solution prepared in the same manner as for samples, and reacted together at room temperature for 60 seconds. Diethyl ether/methanol/0.2M citric acid (30:4:1) was added to extract thromboxane A2 generated and its quantity was then analyzed by RIA using a kit manufactured by NEN, Co. LTd.

[2] = system: platelet aggregation, induced by U-46619; assay: Test Examples 4: Platelet aggregation inhibiting activity (guinea pig PRP, U-46619); format: cell-based; conditions: Cavia porcellus, 320 nM U-46619, 37° C., read-out: Platelet aggregation activity IC50 (concentration of 50% inhibition of platelet aggregation, induced by U-46619)
Experimental: A blood sample was taken from carotid artery of a guinea pig using a syringe containing 3.8% sodium citrate solution (1/10 volume of the blood to be collected). The blood was centrifuged to obtain platelet riched plasma (PRP: number of platelets, 3×10^5 /μ1).
Two hundred microliters of the PRP and 23.75 µl of physiological saline were placed in a cuvette, which was then set in an aggregometer, followed by heating at 37° C. for two minutes, and then followed by addition of 1.25 µl of the solution of an N-(3-pyridylalkyl)sulfonamide derivative of the present invention in ethanol, for 3-min incubation. Then, U-46619, one of stable PGG2 /H2 derivatives, having strong action inducing platelet aggregation, was added, so that platelet aggregation was measured by an aggregometer [Hematracer VI: manufactured by NIKO Bioscience, K.K.].

[3] = system: platelet aggregation caused by U-46619; assay: Test Examples 6: Platelet aggregation inhibiting activity (human PRP, U-46619); format: cell-based; conditions: for IC50: Platelet, 320 nM U-46619, 37° C., read-out: Inhibitory effect against platelet aggregation caused by U-46619 (IC50); for platelet aggregation inhibiting activity (in words): U-46619
Experimental: A blood sample was collected from human fore arm using a syringe containing 3.8% sodium citrate solution (1/10 volume of the blood to be collected) and centrifuged to obtain platelet rich plasma (PRP; 3×10^5 platelets/μl).
as §1, with “200 μof” for “200 µl of”, “23.75 μl” for “23.75 µl”, “1.25 μl” for “1.25 μ1”, “Examples 35, 36, 37” for “Examples 1, 3, 4, 6”, “and 42” for “and 8”, “stable PGG2 /H2” for “stable PGG2/ H2”
In this instance, the term "IC50 " as used herein means concentration of the N-(3-pyridylalkyl)sulfonamide derivative of the present invention required to inhibit 50% of the platelet aggregation when platelet aggregation without introducing the inventive derivative was defined as 100%.

CCOC(=O)COc1ccc(C(CCNS(=O)(=O)c2ccc(Cl)cc2)Cc2cccnc2)cc1 (centres unmarked) [Example 9]
IC50 ([1]; Platelet, 320 nM U-46619, 37° C., read-out: Inhibitory effect against platelet aggregation caused by U-46619 (IC50)): 5.1 µM | platelet aggregation inhibiting activity (in words) ([1]; U-46619): markedly high platelet aggregation inhibiting activity

Cc1ccc(S(=O)(=O)NC(Cc2ccc(OCC(=O)O)cc2)c2cccnc2)cc1 (centres unmarked) [Example 11]
IC50 (thromboxane synthetase): 21 µM | IC50 [2]: 1.9 µM

O=C(O)COc1ccc(CC(NS(=O)(=O)c2ccccc2)c2cccnc2)cc1 (centres unmarked) [Example 13]
IC50 (thromboxane synthetase): 8.9 µM | IC50 [2]: 0.84 µM

O=C(O)/C=C/c1ccc(CC(NS(=O)(=O)c2ccc(Cl)cc2)c2cccnc2)cc1 (centres unmarked) [Example 15, 4-[2-(4-chlorobenzenesulfonamido]-2-(3-pyridyl)ethyl]cinnamic acid]
IC50 (thromboxane synthetase): 36 µM | IC50 [2]: 1.1 µM

O=C(O)CCc1ccc(CC(NS(=O)(=O)c2ccc(Cl)cc2)c2cccnc2)cc1 (centres unmarked) [Example 17, 3-{4-[2-(4-chlorobenzenesulfonamido)-2(3-pyridyl)ethyl]phenyl}propionic acid]
IC50 (thromboxane synthetase): 30 µM | IC50 [2]: 1.8 µM

O=C(O)c1ccc(CC(NS(=O)(=O)c2ccc(Cl)cc2)c2cccnc2)cc1 (centres unmarked) [Example 19]
IC50 (thromboxane synthetase): 1 µM | IC50 [2]: 4.2 µM

O=C(O)Cc1ccc(CC(NS(=O)(=O)c2ccc(Cl)cc2)c2cccnc2)cc1 (centres unmarked) [Example 21, 4-[2-(4-chlorobenzenesulfonamido)-2-(3-pyridyl)ethyl]phenylacetic acid]
IC50 (thromboxane synthetase): 2.2 µM | IC50 [2]: 0.68 µM

O=C(O)COc1ccc(C(CNS(=O)(=O)c2ccc(Cl)cc2)Cc2cccnc2)cc1 (centres unmarked) [Example 23, 4-[{1-(4-chlorobenzenesulfonamido)-3-(3-pyridyl)}propan-2-yl]phenoxyaceticacid]
IC50 (thromboxane synthetase): 5.1 µM | IC50 [2]: 0.36 µM

CCOC(=O)Oc1ccc(C(CNS(=O)(=O)c2ccc(Cl)cc2)Cc2cccnc2)cc1 (centres unmarked) [Example 24]
IC50 (thromboxane synthetase): 2.2 µM | IC50 [2]: 40 µM

O=C(O)COc1ccc(CC(CNS(=O)(=O)c2ccc(Cl)cc2)c2cccnc2)cc1 (centres unmarked) [Example 26]
IC50 (thromboxane synthetase): 2.4 µM | IC50 [2]: 60 µM

CCOC(=O)Oc1ccc(CC(CNS(=O)(=O)c2ccc(Cl)cc2)c2cccnc2)cc1 (centres unmarked) [Example 27]
IC50 (thromboxane synthetase): 28 µM | IC50 [2]: 52 µM

O=C(O)c1ccc(CCC(NS(=O)(=O)c2ccc(Cl)cc2)c2cccnc2)cc1 (centres unmarked) [Example 29, 4-[3-(4-chlorobenzenesulfonamido)-3-(3-pyridyl)propyl]benzoic acid]
IC50 (thromboxane synthetase): 1.5 µM | IC50 [2]: 2 µM

O=C(O)COc1ccc(CCC(NS(=O)(=O)c2ccc(Cl)cc2)c2cccnc2)cc1 (centres unmarked) [Example 31, 4-[3-(4-chlorobenzenesulfonamido)-3-(3-pyridyl)propyl]phenoxyacetic acid]
IC50 (thromboxane synthetase): 0.94 µM | IC50 [2]: 15 µM

O=C(O)COc1ccc(CC(CCNS(=O)(=O)c2ccc(Cl)cc2)c2cccnc2)cc1 (centres unmarked) [Example 33]
IC50 (thromboxane synthetase): 0.03 µM | IC50 [2]: 17 µM

C/C(=C\c1ccc(CC(NS(=O)(=O)c2ccc(Cl)cc2)c2cccnc2)cc1)C(=O)O (centres unmarked) [Example 35]
IC50 [3]: 48 µM | platelet aggregation inhibiting activity (in words) [3]: markedly high platelet aggregation inhibiting activity

C/C(=C\c1ccc(C(CCNS(=O)(=O)c2ccc(Cl)cc2)c2cccnc2)n1C)C(=O)O (centres unmarked) [Example 42]
IC50 [3]: 43 µM | platelet aggregation inhibiting activity (in words) [3]: markedly high platelet aggregation inhibiting activity

Source: patent publication US5374641A, “N-(3-pyridylalkyl)sulfonamide compounds which have useful pharmaceutical activity” (Terumo Kabushiki Kaisha, priority 1991, dated 1994)
